Laboratory results taken from US12257247B2 (Monte Rosa Therapeutics AG, priority 2023, dated 2025).
Like-named read-outs stand apart in the source and are kept apart here.

Target: T1, VAV1 (Homo sapiens, UniProt P15498+Q96SW2)
T1 construct: A heterozygous VAV1 C-terminal HiBiT knock-in pool was generated at Monte Rosa Therapeutics from a clonal Jurkat cell; endogenous in cells; host or cells: Jurkat clone stably expressing LgBiT, homozygous GSPT1-G575N; heterozygous VAV1-HiBiT knock-in pool
Assay: VAV1 degradation activity, VAV1-HiBiT knock-in Jurkat luminescence assay (Example A, Table 1)
Type: cell-based
Settings: VAV1-HiBiT knock-in Jurkat cells, luminescence read at 6 and 24 hours; for Dmax: Jurkat
In short: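 Luminescence was measured at 6 and 24 h after adding compound (10 μM stock) to VAV1-HiBiT knock-in Jurkat cells, which had been pre-incubated ~16 h at 37° C. in RPMI/10% FBS containing Endurazine. EC50 values came from control-normalised responses fitted to a 3-parameter logistic model with hillslope fixed at 1.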

[1] = read-out: VAV1 DC50 (nM), class

SMILES	Dmax (read-out: VAV1 Dmax %)	Dmax (read-out: VAV1 Dmax %, class)	DC50 (read-out: VAV1 DC50)	DC50 [1]	VAV1 Dmax %	VAV1 Dmax %, class
CN1CCN(Cc2ccc(-c3cccc(C4CCC(=O)NC4=O)c3Cl)cc2)C(=O)C1 (stereo not drawn) [Compound 277]	76.8%	60 to 90%	647 nM	100 to 1000 nM	–	–
O=C1CCC(c2cccc(-c3ccc(CN4C(=O)CC45CCOCC5)cc3)c2Cl)C(=O)N1 (stereo not drawn) [Compound 278]	95.9%	> 90%	5.33 nM	≤ 100 nM	–	–
O=C1CCC(c2cccc(-c3ccc(CN4C(=O)CC45CCC5)cc3)c2Cl)C(=O)N1 (stereo not drawn) [Compound 279]	98.5%	> 90%	4.83 nM	≤ 100 nM	–	–
CC1(C)CN(c2cccc(-c3ccc(CC4CCC(=O)NC4=O)cc3Cl)c2)C(=O)CO1 (stereo not drawn) [Compound 280]	–	–	44.9 nM	≤ 100 nM	83.31%	B (B represents Dmax % >60% and <=90%)
O=C1CCC(c2cccc(-c3ccc(CN4CC5CCCC5C4=O)cc3)c2Cl)C(=O)N1 (stereo not drawn) [Compound 282]	98%	> 90%	3.88 nM	≤ 100 nM	–	–
O=C1CCC(c2cccc(-c3ccc(CN4CCC5CC5C4=O)cc3)c2Cl)C(=O)N1 (stereo not drawn) [Compound 283]	93.3%	> 90%	11.1 nM	≤ 100 nM	–	–
CC1(C)CCC(=O)N(Cc2ccc(-c3cccc(C4CCC(=O)NC4=O)c3Cl)cc2)C1 (stereo not drawn) [Compound 284]	98%	> 90%	3.48 nM	≤ 100 nM	–	–
CC1(C)CCN(Cc2ccc(-c3cccc(C4CCC(=O)NC4=O)c3Cl)cc2)C(=O)C1 (stereo not drawn) [Compound 285]	95.2%	> 90%	10.2 nM	≤ 100 nM	–	–
CC1CCN(Cc2ccc(-c3cccc(C4CCC(=O)NC4=O)c3Cl)cc2)C(=O)C1 (stereo not drawn) [Compound 286]	94%	> 90%	15.9 nM	≤ 100 nM	–	–
CC1CCCN(Cc2ccc(-c3cccc(C4CCC(=O)NC4=O)c3Cl)cc2)C1=O (stereo not drawn) [Compound 287]	95.5%	> 90%	12.5 nM	≤ 100 nM	–	–
CC1CCC(=O)N(Cc2ccc(-c3cccc(C4CCC(=O)NC4=O)c3Cl)cc2)C1 (stereo not drawn) [Compound 288]	96.7%	> 90%	6.09 nM	≤ 100 nM	–	–
O=C1CCC(c2cccc(-c3ccc(CN4CCC(F)C4=O)cc3)c2Cl)C(=O)N1 (stereo not drawn) [Compound 289]	86.7%	60 to 90%	43.3 nM	≤ 100 nM	–	–
CC1CCN(Cc2ccc(-c3cccc(C4CCC(=O)NC4=O)c3Cl)cc2)C1=O (stereo not drawn) [Compound 290]	92.9%	> 90%	16.9 nM	≤ 100 nM	–	–
O=C1CCC(c2cccc(-c3ccc(CN4CC5CC5C4=O)cc3)c2Cl)C(=O)N1 (stereo not drawn) [Compound 291]	93.1%	> 90%	21.3 nM	≤ 100 nM	–	–
CC1(C)CCCC(=O)N1Cc1ccc(-c2cccc(C3CCC(=O)NC3=O)c2Cl)cc1 (stereo not drawn) [Compound 292]	93.7%	> 90%	12.7 nM	≤ 100 nM	–	–
O=C1CCC(c2cccc(-c3ccc(CN4C(=O)CCC45CCC5)cc3)c2Cl)C(=O)N1 (stereo not drawn) [Compound 293]	95.8%	> 90%	6.99 nM	≤ 100 nM	–	–
O=C1CCC(c2cccc(-c3ccc(CN4C(=O)CCCC45CC5)cc3)c2Cl)C(=O)N1 (stereo not drawn) [Compound 294]	95.7%	> 90%	8.3 nM	≤ 100 nM	–	–
CC1CCCC(=O)N1Cc1ccc(-c2cccc(C3CCC(=O)NC3=O)c2Cl)cc1 (stereo not drawn) [Compound 295]	94.8%	> 90%	9.84 nM	≤ 100 nM	–	–

SMILES	Dmax (read-out: VAV1 Dmax %)	Dmax (read-out: VAV1 Dmax %, class)	DC50 (read-out: VAV1 DC50)	DC50 [1]	VAV1 Dmax %	VAV1 Dmax %, class
O=C1CCC(c2cccc(-c3ccc(CN4C(=O)CCC45CC5)cc3)c2Cl)C(=O)N1 (stereo not drawn) [Compound 296]	93.8%	> 90%	10.1 nM	≤ 100 nM	–	–
CC1CCC(=O)N1Cc1ccc(-c2cccc(C3CCC(=O)NC3=O)c2Cl)cc1 (stereo not drawn) [Compound 297]	93.5%	> 90%	13.4 nM	≤ 100 nM	–	–
O=C1CCC(c2cccc(-c3ccc(CN4Cc5ncccc5C4=O)cc3)c2Cl)C(=O)N1 (stereo not drawn) [Compound 298]	95.4%	> 90%	11.7 nM	≤ 100 nM	–	–
O=C1CCC(c2cccc(-c3ccc(CN4Cc5cccnc5C4=O)cc3)c2Cl)C(=O)N1 (stereo not drawn) [Compound 299]	91.6%	> 90%	91.5 nM	≤ 100 nM	–	–
O=C1CCC(c2cccc(-c3ccc(CN4Cc5cnccc5C4=O)cc3)c2Cl)C(=O)N1 (stereo not drawn) [Compound 300]	94.3%	> 90%	17.1 nM	≤ 100 nM	–	–
O=C1CCC(c2cccc(-c3ccc(CN4Cc5ccncc5C4=O)cc3)c2Cl)C(=O)N1 (stereo not drawn) [Compound 301]	86.2%	60 to 90%	71.2 nM	≤ 100 nM	–	–
O=C1CCC(c2cccc(-c3ccc(CN4CCOCC4=O)cc3)c2Cl)C(=O)N1 (stereo not drawn) [Compound 302]	78%	60 to 90%	92.1 nM	≤ 100 nM	–	–
C[C@@H]1CCC(=O)N1c1ccc(-c2cccc(C3CCC(=O)NC3=O)c2Cl)cc1 (stereo partly drawn) [Compound 303]	93.5%	> 90%	13.9 nM	≤ 100 nM	–	–
CC1CCN(c2ccc(-c3cccc(C4CCC(=O)NC4=O)c3Cl)cc2)C1=O (stereo not drawn) [Compound 304]	72%	60 to 90%	274 nM	100 to 1000 nM	–	–
O=C1CCC(c2cccc(-c3ccc(N4C(=O)OCCC4C(F)(F)F)cc3)c2Cl)C(=O)N1 (stereo not drawn) [Compound 305]	93%	> 90%	19.6 nM	≤ 100 nM	–	–
O=C1CCC(c2cccc(-c3ccc(N4CC(C(F)(F)F)OCC4=O)cc3)c2Cl)C(=O)N1 (stereo not drawn) [Compound 306]	89.1%	60 to 90%	49.2 nM	≤ 100 nM	–	–
O=C1CCC(c2cccc(-c3ccc(N4CC5CC5CC4=O)cc3)c2Cl)C(=O)N1 (stereo not drawn) [Compound 307]	96%	> 90%	9.64 nM	≤ 100 nM	–	–
O=C1CCC(c2cccc(-c3ccc(N4CCN5CCCC5C4=O)cc3)c2Cl)C(=O)N1 (stereo not drawn) [Compound 308]	93.8%	> 90%	22.5 nM	≤ 100 nM	–	–
O=C1CCC(c2cccc(-c3ccc(N4CCn5ccnc5C4=O)cc3)c2Cl)C(=O)N1 (stereo not drawn) [Compound 309]	89.6%	60 to 90%	39.4 nM	≤ 100 nM	–	–
O=C1CCC(c2cccc(-c3ccc(N4CCC5(COC5)CC4=O)cc3)c2Cl)C(=O)N1 (stereo not drawn) [Compound 310]	90.5%	> 90%	23 nM	≤ 100 nM	–	–
CC1(C)CN(c2ccc(-c3cccc(C4CCC(=O)NC4=O)c3Cl)cc2)C(=O)CO1 (stereo not drawn) [Compound 311]	92.7%	> 90%	21.9 nM	≤ 100 nM	–	–
O=C1CCC(c2cccc(-c3ccc(N4CCC5CC5C4=O)cc3)c2Cl)C(=O)N1 (stereo not drawn) [Compound 312]	96.1%	> 90%	7.99 nM	≤ 100 nM	–	–
Cn1ncc2c1CCN(c1ccc(-c3cccc(C4CCC(=O)NC4=O)c3Cl)cc1)C2=O (stereo not drawn) [Compound 313]	95.3%	> 90%	7.02 nM	≤ 100 nM	–	–
